According to PubChem BioAssay (NCI):
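All cell lines were grown in 96-well plates and treated with compound for 48 hours. GI50 = concentration required for 50% inhibition of growth. Definition used: TGI = concentration required for complete inhibition of growth.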

What was measured:
Assay in all cases: NCI tumour cell line growth inhibition, 48 h
SF-268 CNS = system: SF-268 CNS
NCI-H522 lung = system: NCI-H522 lung
HL-60(TB) leukemia = system: HL-60(TB) leukemia
MOLT-4 leukemia = system: MOLT-4 leukemia
HCT-116 colon = system: HCT-116 colon
NCI-H226 lung = system: NCI-H226 lung
UACC-62 melanoma = system: UACC-62 melanoma
BT-549 breast = system: BT-549 breast
K-562 leukemia = system: K-562 leukemia
IGROV1 ovarian = system: IGROV1 ovarian
SK-OV-3 ovarian = system: SK-OV-3 ovarian
RPMI-8226 leukemia = system: RPMI-8226 leukemia
OVCAR-5 ovarian = system: OVCAR-5 ovarian
SNB-19 CNS = system: SNB-19 CNS
NCI-H460 lung = system: NCI-H460 lung
SN12C renal = system: SN12C renal
SNB-75 CNS = system: SNB-75 CNS
MALME-3M melanoma = system: MALME-3M melanoma
CCRF-CEM leukemia = system: CCRF-CEM leukemia
HT29 colon = system: HT29 colon
EKVX NSCLC = system: EKVX NSCLC
KM12 colon = system: KM12 colon
SF-295 CNS = system: SF-295 CNS
OVCAR-3 ovarian = system: OVCAR-3 ovarian
SK-MEL-5 melanoma = system: SK-MEL-5 melanoma
MCF7 breast = system: MCF7 breast
SW-620 colon = system: SW-620 colon
HCT-15 colon = system: HCT-15 colon
UACC-257 melanoma = system: UACC-257 melanoma
RXF 393 renal = system: RXF 393 renal
SK-MEL-28 melanoma = system: SK-MEL-28 melanoma
HOP-92 NSCLC = system: HOP-92 NSCLC
TK-10 renal = system: TK-10 renal
MDA-MB-435 = system: MDA-MB-435
NCI-H23 lung = system: NCI-H23 lung
A498 renal = system: A498 renal
SK-MEL-2 melanoma = system: SK-MEL-2 melanoma
A549 NSCLC = system: A549 NSCLC
SR leukemia = system: SR leukemia
T-47D breast = system: T-47D breast
U251 CNS = system: U251 CNS
UO-31 renal = system: UO-31 renal
CAKI-1 renal = system: CAKI-1 renal
DU-145 prostate = system: DU-145 prostate
HS 578T breast = system: HS 578T breast
NCI/ADR-RES ovarian = system: NCI/ADR-RES ovarian
PC-3 prostate = system: PC-3 prostate
COLO 205 colon = system: COLO 205 colon
M14 melanoma = system: M14 melanoma
LOX IMVI melanoma = system: LOX IMVI melanoma
SF-539 CNS = system: SF-539 CNS
ACHN renal = system: ACHN renal
OVCAR-4 ovarian = system: OVCAR-4 ovarian
786-0 renal = system: 786-0 renal
OVCAR-8 ovarian = system: OVCAR-8 ovarian
HOP-62 NSCLC = system: HOP-62 NSCLC
MDA-MB-231 breast = system: MDA-MB-231 breast
HCC-2998 colon = system: HCC-2998 colon

## CCN(CC)CCC(CNc1ccnc2cc(Cl)ccc12)c1ccc(Cl)cc1 (stereo unspecified)
SF-268 CNS
  GI50: 1.97 µM
  TGI: 4.61 µM
NCI-H522 lung
  GI50: 0.608 µM
  TGI: 2.19 µM
HL-60(TB) leukemia
  GI50: 1.34 µM
  TGI: 3.94 µM
MOLT-4 leukemia
  GI50: 1.6 µM
  TGI: 9.27 µM
HCT-116 colon
  GI50: 1.01 µM
  TGI: 2.32 µM
NCI-H226 lung
  GI50: 2.46 µM
  TGI: 8.19 µM
UACC-62 melanoma
  GI50: 1.18 µM
  TGI: 2.69 µM
BT-549 breast
  GI50: 1.73 µM
  TGI: 3.4 µM
K-562 leukemia
  GI50: 0.312 µM
  TGI: 1.16 µM
IGROV1 ovarian
  GI50: 2.27 µM
  TGI: 7.33 µM
SK-OV-3 ovarian
  GI50: 2.1 µM
  TGI: 5.4 µM
RPMI-8226 leukemia
  GI50: 1.02 µM
  TGI: 3.67 µM
OVCAR-5 ovarian
  GI50: 3.01 µM
  TGI: 11.2 µM
SNB-19 CNS
  GI50: 1.98 µM
  TGI: 5.78 µM
NCI-H460 lung
  GI50: 2.03 µM
  TGI: 11.1 µM
SN12C renal
  GI50: 1.84 µM
  TGI: 10.4 µM
SNB-75 CNS
  GI50: 1.3 µM
  TGI: 2.64 µM
MALME-3M melanoma
  GI50: 1.4 µM
  TGI: 3.16 µM
CCRF-CEM leukemia
  GI50: 1.27 µM
  TGI: 6.29 µM
HT29 colon
  GI50: 0.282 µM
  TGI: 1.49 µM
EKVX NSCLC
  GI50: 3.85 µM
  TGI: 18.8 µM
KM12 colon
  GI50: 1.79 µM
  TGI: 4.44 µM
SF-295 CNS
  GI50: 1.02 µM
  TGI: 2.64 µM
OVCAR-3 ovarian
  GI50: 1.96 µM
  TGI: 5.98 µM
SK-MEL-5 melanoma
  GI50: 1.11 µM
  TGI: 2.34 µM
MCF7 breast
  GI50: 1.06 µM
  TGI: 2.32 µM
SW-620 colon
  GI50: 1.48 µM
  TGI: 3.39 µM
HCT-15 colon
  GI50: 1.05 µM
  TGI: 4.89 µM
UACC-257 melanoma
  GI50: 1.02 µM
  TGI: 2.37 µM
RXF 393 renal
  GI50: 1.04 µM
  TGI: 2.32 µM
SK-MEL-28 melanoma
  GI50: 0.763 µM
  TGI: 2.06 µM
HOP-92 NSCLC
  GI50: 0.995 µM
  TGI: 3.19 µM
TK-10 renal
  GI50: 0.436 µM
  TGI: 1.63 µM
MDA-MB-435
  GI50: 0.402 µM
  TGI: 1.65 µM
NCI-H23 lung
  GI50: 1.87 µM
  TGI: 7.1 µM
A498 renal
  GI50: 1.21 µM
  TGI: 2.76 µM
SK-MEL-2 melanoma
  GI50: 1.57 µM
  TGI: 3.18 µM
A549 NSCLC
  GI50: 1.64 µM
  TGI: 3.96 µM
SR leukemia
  GI50: 0.311 µM
  TGI: 1.48 µM
T-47D breast
  GI50: 1.92 µM
  TGI: 4.21 µM
U251 CNS
  GI50: 1.37 µM
  TGI: 2.85 µM
UO-31 renal
  GI50: 0.642 µM
  TGI: 2.07 µM
CAKI-1 renal
  GI50: 0.496 µM
  TGI: 2.36 µM
DU-145 prostate
  GI50: 5.44 µM
  TGI: 17.7 µM
HS 578T breast
  GI50: 1.66 µM
  TGI: 4.67 µM
NCI/ADR-RES ovarian
  GI50: 2.06 µM
  TGI: 8.65 µM
PC-3 prostate
  GI50: 3.28 µM
  TGI: 17.7 µM
COLO 205 colon
  GI50: 1.13 µM
  TGI: 2.5 µM
M14 melanoma
  GI50: 0.211 µM
  TGI: 0.47 µM
LOX IMVI melanoma
  GI50: 1.02 µM
  TGI: 2.38 µM
SF-539 CNS
  GI50: 1.25 µM
  TGI: 2.77 µM
ACHN renal
  GI50: 0.467 µM
  TGI: 1.78 µM
OVCAR-4 ovarian
  GI50: 0.764 µM
  TGI: 4.32 µM
786-0 renal
  GI50: 1.34 µM
  TGI: 2.68 µM
OVCAR-8 ovarian
  GI50: 1.86 µM
  TGI: 4.79 µM
HOP-62 NSCLC
  GI50: 1.78 µM
  TGI: 5.9 µM
MDA-MB-231 breast
  GI50: 1.28 µM
  TGI: 3.21 µM
HCC-2998 colon
  GI50: 0.642 µM
  TGI: 2.03 µM
